Holding throughout (format): cell-based
The subject of one experiment is Proteus vulgaris. Briefly: MIC against Gram-negative bacteria: Proteus vulgaris. Conditions: 5×10^5 CFU/mL. An outline of the steps: (§1)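 MIC = lowest concentration of recombinant protein showing no growth. Test proteins: purified human-derived EGF domain proteins, two-fold dilution series, three wells per concentration; inoculum 5×10^5 CFU/mL in LB; incubation 37° C with shaking at 175 rpm.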

The subject of another experiment is Pseudomonas aeruginosa. Briefly: MIC against Gram-negative bacteria: Pseudomonas aeruginosa. Conditions: 5×10^5 CFU/mL. The method in brief: as §1
Another experiment relates to Aeromonas hydrophila. As to the kind of experiment: MIC against Gram-negative bacteria: Aeromonas hydrophila. Conditions: 5×10^5 CFU/mL. An outline of the steps:
as §1

A further experiment has as its system Citrobacter diversus. As to the kind of experiment: MIC against Gram-negative bacteria: Citrobacter diversus. Conditions: 5×10^5 CFU/mL. An outline of the steps:
as §1

For the next experiment, the system named is E. coli BL21. Briefly: MIC against Gram-negative bacteria: E. coli BL21. As to conditions: 5×10^5 CFU/mL. An outline of the steps: as §1
A further experiment has as its system Moraxella catarrhalis. As to the kind of experiment: MIC against Gram-negative bacteria: Moraxella catarrhalis. Conditions: 5×10^5 CFU/mL. The method in brief:
as §1

The test system of the next experiment is Serratia marcescens. As to the kind of experiment: MIC against Gram-negative bacteria: Serratia marcescens. Conditions: 5×10^5 CFU/mL. An outline of the steps: as §1
In another experiment the test system is Klebsiella pneumonia. Briefly: MIC against Gram-negative bacteria: Klebsiella pneumonia. As to conditions: 5×10^5 CFU/mL. The method in brief:
as §1

In another experiment the test system is E. coli DH5α. Briefly: Antibacterial activity: MIC and growth curve against E. coli DH5α in 96-well plate. Conditions: minimal inhibitory concentration against E. coli DH5α; 96-well plate, 5×10^5 CFU/mL, 37° C., judged after 8 h. The method in brief: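 MIC taken as lowest protein level with no bacterial growth, tracked by A600 every 30 min during 37 °C, 175 rpm culture. Two-fold protein series 50-12.5 μg/mL final, triplicate wells, against 5×10^5 CFU/mL of LB-washed mid-log cells.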

Another experiment has as its system Enterobacter cloacae. Briefly: MIC against Gram-negative bacteria: Enterobacter cloacae. Conditions: 5×10^5 CFU/mL. The method in brief: as §1
A further experiment deals with Proteus mirabilis. Briefly: MIC against Gram-negative bacteria: Proteus mirabilis. As to conditions: 5×10^5 CFU/mL. An outline of the steps: as §1
The mark [1] stands for this setting: Proteus vulgaris, 10 h cultivation at 37° C.
The mark [2] stands for this setting: Pseudomonas aeruginosa, 10 h cultivation at 37° C.
Where [3] appears, read: Aeromonas hydrophila, 10 h cultivation at 37° C.
The mark [4] stands for this setting: Citrobacter diversus, 10 h cultivation at 37° C.
Where [5] appears, read: E. coli BL21, 10 h cultivation at 37° C.
[6] abbreviates: Moraxella catarrhalis, 10 h cultivation at 37° C.
The mark [7] stands for this setting: Serratia marcescens, 10 h cultivation at 37° C.
Setting [8] is: Klebsiella pneumonia, 10 h cultivation at 37° C.
Setting [9] is: Enterobacter cloacae, 10 h cultivation at 37° C.
The mark [10] stands for this setting: Proteus mirabilis, 10 h cultivation at 37° C.

On to “PRT462 (DVDECLEGLDDCHYNQLCENTPGGHRCSCPRGYRMQGPS; listed as Homo sapiens)”, for which, in the experiment on Proteus vulgaris (96-well plate, 37° C., 10 h), the “MIC against P. vulgaris” value worked out at 12.5 µg/mL. The “MIC against P. aeruginosa” value in the experiment on Pseudomonas aeruginosa (96-well plate, 37° C., 10 h) is 100 µg/mL. Moreover, the “MIC against A. hydrophila” value against Aeromonas hydrophila (96-well plate, 37° C., 10 h) came to 12.5 µg/mL. For the same substance, the “MIC against C. diversus” value against Citrobacter diversus (96-well plate, 37° C., 10 h) is 12.5 µg/mL. For the same substance, in the experiment on E. coli BL21 (96-well plate, 37° C., 10 h), the “MIC against E. coli BL21” value was found to be 12.5 µg/mL. In addition, the “MIC against M. catarrhalis” value against Moraxella catarrhalis (96-well plate, 37° C., 10 h) turned out to be 50 µg/mL. In addition, the “MIC against S. marcescens” value in the experiment on Serratia marcescens (96-well plate, 37° C., 10 h) came to 25 µg/mL. In the experiment with Klebsiella pneumonia (96-well plate, 37° C., 10 h), the “MIC against K. pneumonia” value was found to be 12.5 µg/mL. Further, in the experiment on E. coli DH5α, the MIC stood at 12.5 µg/mL. The “MIC against E. cloacae” value with Enterobacter cloacae (96-well plate, 37° C., 10 h) is 12.5 µg/mL. The “MIC against P. mirabilis” value in the experiment on Proteus mirabilis (96-well plate, 37° C., 10 h) turned out to be 25 µg/mL.

In the case of “PRT1387 (IMDDCSTNCNGNGECISGHCHCFPGFLGPDCA; listed as Homo sapiens)”, in the experiment on Proteus vulgaris (setting [1]), the “MIC against P. vulgaris” value came out at 12.5 µg/mL. In addition, in the experiment on Pseudomonas aeruginosa (setting [2]), the “MIC against P. aeruginosa” value worked out at 50 µg/mL. Also, the “MIC against A. hydrophila” value in the experiment with Aeromonas hydrophila (setting [3]) stood at 50 µg/mL. Moreover, the “MIC against C. diversus” value against Citrobacter diversus (setting [4]) amounted to 25 µg/mL. In the experiment with E. coli BL21 (setting [5]), the “MIC against E. coli BL21” value came to 12.5 µg/mL. The “MIC against M. catarrhalis” value against Moraxella catarrhalis (setting [6]) was found to be 12.5 µg/mL. In addition, in the experiment on Serratia marcescens (setting [7]), the “MIC against S. marcescens” value stood at 25 µg/mL. Further, the “MIC against K. pneumonia” value in the experiment on Klebsiella pneumonia (setting [8]) is 25 µg/mL. This substance also had an MIC with E. coli DH5α of 12.5 µg/mL. In the experiment with Enterobacter cloacae (setting [9]), the “MIC against E. cloacae” value came out at 12.5 µg/mL. Also, the “MIC against P. mirabilis” value with Proteus mirabilis (setting [10]) turned out to be 25 µg/mL.

On to “PRT483 (DCRAVYDRYSDDFCSGHGQCNCGRCDCKAGWYGKKCE; listed as Homo sapiens)”, for which, in the experiment with Proteus vulgaris (96-well plate, 37° C., 10 h), the “MIC against P. vulgaris” value was determined as 25 µg/mL. Moreover, in the experiment on Pseudomonas aeruginosa (96-well plate, 37° C., 10 h), the “MIC against P. aeruginosa” value came to 50 µg/mL. In the experiment on Aeromonas hydrophila (96-well plate, 37° C., 10 h), the “MIC against A. hydrophila” value is 25 µg/mL. Moreover, the “MIC against C. diversus” value against Citrobacter diversus (96-well plate, 37° C., 10 h) came to 50 µg/mL. The “MIC against E. coli BL21” value against E. coli BL21 (96-well plate, 37° C., 10 h) was 25 µg/mL. For the same substance, the “MIC against M. catarrhalis” value with Moraxella catarrhalis (96-well plate, 37° C., 10 h) was found to be 25 µg/mL. In the experiment with Serratia marcescens (96-well plate, 37° C., 10 h), the “MIC against S. marcescens” value was 50 µg/mL. Moreover, in the experiment with Klebsiella pneumonia (96-well plate, 37° C., 10 h), the “MIC against K. pneumonia” value worked out at 25 µg/mL. This substance returned an MIC in the experiment on E. coli DH5α of 12.5 µg/mL. Moreover, the “MIC against E. cloacae” value in the experiment on Enterobacter cloacae (96-well plate, 37° C., 10 h) amounted to 12.5 µg/mL. Further, the “MIC against P. mirabilis” value in the experiment on Proteus mirabilis (96-well plate, 37° C., 10 h) is 12.5 µg/mL.

Take “PRT460 (DRDECSGGPSPCSHACLNAPGRFSCTCPTGFALAWDDRNCR; listed as Homo sapiens)”: in the experiment on Proteus vulgaris (96-well plate, 37° C., 10 h), the “MIC against P. vulgaris” value was 50 µg/mL. In addition, the “MIC against P. aeruginosa” value in the experiment with Pseudomonas aeruginosa (96-well plate, 37° C., 10 h) amounted to 12.5 µg/mL. Besides, the “MIC against A. hydrophila” value in the experiment with Aeromonas hydrophila (96-well plate, 37° C., 10 h) was determined as 12.5 µg/mL. Also, in the experiment with Citrobacter diversus (96-well plate, 37° C., 10 h), the “MIC against C. diversus” value turned out to be 50 µg/mL. In addition, in the experiment on E. coli BL21 (96-well plate, 37° C., 10 h), the “MIC against E. coli BL21” value was 25 µg/mL. The “MIC against M. catarrhalis” value against Moraxella catarrhalis (96-well plate, 37° C., 10 h) was determined as 25 µg/mL. In the experiment on Serratia marcescens (96-well plate, 37° C., 10 h), the “MIC against S. marcescens” value came to 12.5 µg/mL. For the same substance, the “MIC against K. pneumonia” value against Klebsiella pneumonia (96-well plate, 37° C., 10 h) was determined as 25 µg/mL. In the experiment with E. coli DH5α, this substance displayed an MIC of 50 µg/mL. Besides, in the experiment on Enterobacter cloacae (96-well plate, 37° C., 10 h), the “MIC against E. cloacae” value turned out to be 50 µg/mL. The “MIC against P. mirabilis” value with Proteus mirabilis (96-well plate, 37° C., 10 h) turned out to be 12.5 µg/mL.

Regarding “PRT1242 (WGPECQQQCECVRGRCSAASGECTCPPGFRGARCE; listed as Homo sapiens)”, in the experiment with Proteus vulgaris (Proteus vulgaris, 96-well plate, 37° C., 10 h), the “MIC against P. vulgaris” value stood at 25 µg/mL. The “MIC against P. aeruginosa” value in the experiment with Pseudomonas aeruginosa (Pseudomonas aeruginosa, 96-well plate, 37° C., 10 h) stood at 25 µg/mL. Further, in the experiment on Aeromonas hydrophila (Aeromonas hydrophila, 96-well plate, 37° C., 10 h), the “MIC against A. hydrophila” value was determined as 25 µg/mL. In addition, in the experiment on Citrobacter diversus (Citrobacter diversus, 96-well plate, 37° C., 10 h), the “MIC against C. diversus” value stood at 50 µg/mL. Moreover, the “MIC against E. coli BL21” value in the experiment on E. coli BL21 (E. coli BL21, 96-well plate, 37° C., 10 h) worked out at 50 µg/mL. In the experiment with Moraxella catarrhalis (Moraxella catarrhalis, 96-well plate, 37° C., 10 h), the “MIC against M. catarrhalis” value is 25 µg/mL. Moreover, the “MIC against S. marcescens” value in the experiment on Serratia marcescens (Serratia marcescens, 96-well plate, 37° C., 10 h) amounted to 50 µg/mL. Further, the “MIC against K. pneumonia” value with Klebsiella pneumonia (Klebsiella pneumonia, 96-well plate, 37° C., 10 h) turned out to be 12.5 µg/mL. Moreover, the MIC against E. coli DH5α came out at 25 µg/mL. In the experiment with Enterobacter cloacae (Enterobacter cloacae, 96-well plate, 37° C., 10 h), the “MIC against E. cloacae” value came out at 25 µg/mL. The “MIC against P. mirabilis” value with Proteus mirabilis (Proteus mirabilis, 96-well plate, 37° C., 10 h) is 12.5 µg/mL.

Take “PRT1482 (LCSFGCGSGICIAPNVCSCQDGEQGATCP; listed as Homo sapiens)”: in the experiment on Proteus vulgaris (setting [1]), the “MIC against P. vulgaris” value was 25 µg/mL. For the same substance, in the experiment with Pseudomonas aeruginosa (setting [2]), the “MIC against P. aeruginosa” value turned out to be 12.5 µg/mL. Also, the “MIC against A. hydrophila” value in the experiment on Aeromonas hydrophila (setting [3]) amounted to 50 µg/mL. Further, the “MIC against C. diversus” value against Citrobacter diversus (setting [4]) came out at 12.5 µg/mL. The “MIC against E. coli BL21” value in the experiment with E. coli BL21 (setting [5]) amounted to 50 µg/mL. The “MIC against M. catarrhalis” value in the experiment on Moraxella catarrhalis (setting [6]) worked out at 25 µg/mL. Further, the “MIC against S. marcescens” value in the experiment on Serratia marcescens (setting [7]) was found to be 25 µg/mL. Besides, the “MIC against K. pneumonia” value in the experiment on Klebsiella pneumonia (setting [8]) worked out at 50 µg/mL. This substance also gave an MIC in the experiment with E. coli DH5α of 12.5 µg/mL. In addition, the “MIC against E. cloacae” value in the experiment with Enterobacter cloacae (setting [9]) worked out at 12.5 µg/mL. Besides, the “MIC against P. mirabilis” value in the experiment with Proteus mirabilis (setting [10]) turned out to be 50 µg/mL.

For orientation: MIC means the least concentration at which growth counts as inhibited. Low values mean a more susceptible organism, high ones a less susceptible organism.

Values taken from patent publication US9833497B2, “Human originated EGF domain proteins and use of the same” (CHENGDU SOURCEBIO LIMITED-LIABILITY COMPANY, priority 2013, dated 2017).
